Where a name gives a salt, the structure may show the parent alone.
How the values were obtained:
[1] = target: T1, thromboxane synthetase enzyme (Rattus norvegicus, UniProt P49430); test: Inhibition of thromboxane formation (TXB2 RIA) in washed platelets of spontaneously hypertensive rats; assay type: cell-based, Okamoto-Aoki spontaneously hypertensive rats (SHR); settings: SHR platelets, 10 minutes at 37° C.; drug concentration not given
T1 construct: The platelets were isolated by centrifuging the PRP for 10 minutes; endogenous in cells; host or cells: washed platelets from arterial blood of Okamoto-Aoki spontaneously hypertensive rats (SHR; animals from Taconic Farms, Germantown, N.Y.)
T1 sequence (P49430 1-533): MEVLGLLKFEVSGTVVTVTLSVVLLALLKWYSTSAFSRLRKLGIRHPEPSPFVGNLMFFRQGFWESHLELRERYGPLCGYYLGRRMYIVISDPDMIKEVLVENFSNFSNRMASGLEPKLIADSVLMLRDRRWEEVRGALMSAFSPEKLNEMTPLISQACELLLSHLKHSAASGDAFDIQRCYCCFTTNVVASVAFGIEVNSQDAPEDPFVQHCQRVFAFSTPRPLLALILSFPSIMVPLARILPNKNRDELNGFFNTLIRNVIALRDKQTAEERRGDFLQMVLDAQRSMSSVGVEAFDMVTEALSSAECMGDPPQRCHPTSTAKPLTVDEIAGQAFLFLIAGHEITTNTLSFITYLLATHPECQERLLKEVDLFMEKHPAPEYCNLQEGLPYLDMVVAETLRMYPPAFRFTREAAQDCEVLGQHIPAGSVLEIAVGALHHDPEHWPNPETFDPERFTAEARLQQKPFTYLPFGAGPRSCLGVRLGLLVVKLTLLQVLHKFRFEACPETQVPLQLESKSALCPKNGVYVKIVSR
Protocol: Under urethan anesthesia, […] of arterial blood was collected in one ml. of 3.2% sodium citrate in a polystyrene tube from Okamoto-Aoki spontaneously hypertensive rats (SHR) (Taconic Farms, Germantown, N.Y.) between 19 and 24 weeks in age. The blood was diluted with 3 ml. of cold saline and centrifuged at room temperature for 15 minutes at 460×g. The platelet rich plasma (PRP) was separated. The platelets were isolated by centrifuging the PRP for 10 minutes at 1060 xg and were washed in 4 ml. of cold oxygenated Krebs phosphate buffer, pH 7.4. The chilled platelets recovered from centrifuging at 800×g for 10 minutes were resuspended in oxygenated Krebs phosphate buffer and diluted to contain 4.5-6.0×10^4 platelets/μl. The inhibition of thromboxane (TX) formation was studied by determining the concentration of thromboxane B2 (TXB2), the stable hydrolysis product of TXA2. Assay samples, prepared on ice, contained 200 μl platelet suspension, 50 μl saline, and 50 μl vehicle or drug under study (OKY1581, UK-37248-01, 1-benzylimidazole, or indomethacin). The samples were incubated for 10 minutes at 37° C. in a metabolic shaker. The reaction was terminated by immersing the tubes in an ice bath and adding 50 μl of 0.5M citric acid. The samples were centrifuged for 10 minutes in a refrigerated centrifuge and the supernatants thus obtained were decanted and stored at -20° C. The TXB2 content for each sample was determined by a direct radioimmunoassay (RIA) utilizing a TXB2 specific RIA kit purchased from New England Nuclear, Boston, MA. and expressed as pg TXB2 formed minute^-1 sample^-1, from which the percent inhibition of TXB2 formation was calculated.

Sprague-Dawley rats = test: In Vivo Test for the Prevention of Death Due to Infarction; settings: 3 rats infarcted, 10 mg/kg intraperitoneal 1 h before 10 mg/kg s.c. (-)isoproternol hydrochloride, observed 2.5 hours; for responders at 10 mg/kg: Rattus norvegicus, ip, read-out: % Survival
Protocol: Beitz, Toxicology and Applied Pharmacology 62, 152-157 (1982) was performed as follows:
In Vivo Test for the Prevention of Death Due to Infarction
Sprague-Dawley rats were pretreated with an intraperitoneal injection of the test compound at 10 mg/kg of body weight. One hour later, a myocardial infarction was induced by injection 10 mg/kg of (-)isoproternol hydrochloride subcutaneously. Each compound was tested in at least three rats. […] The compound is considered "in vivo active" in those groups in which all animals survive the myocardial infarction.

| Compound | % Inhibition (of TXB2 formation) [1] [%] | No. of Rats Surviving (Sprague-Dawley rats) | responders at 10 mg/kg (Sprague-Dawley rats) [%] |
| --- | --- | --- | --- |
| Nc1ccc(Cl)cc1C(=O)NCCCc1cccnc1 [2-Amino-5-chloro-N--[3-(3-pyridinyl)propyl]benzamide dihydrochloride] | 98 | – | – |
| O=C(O)c1ccc(Cl)cc1C(=O)NCCCCc1cccnc1 [Example 14, 4-Chloro-2-[[[4-(3-pyridinyl)butyl]amino]carbonyl]benzoic acid] | 100 | 3 | 100 |
| CNc1ccc(Cl)cc1C(=O)NCCCCc1cccnc1.Cl.Cl [Example 4, 5-Chloro-2-(methylamino)-N-[4-(3-pyridinyl)butyl]benzamide dihydrochloride] | 99 | – | – |
| Cl.Cl.Nc1ccccc1C(=O)NCCCCc1cccnc1 [Example 2, 2-Amino-N-[4-(3-pyridinyl)butyl]benzamide dihydrochloride] | 97 | 3 | 100 |
| Cl.Cl.Nc1c(C(=O)NCCCc2cccnc2)cccc1C(F)(F)F [Example 11, 2-Amino-N-[3-(3-pyridinyl)propyl]-3-(trifluoromethyl)benzamide dihydrochloride] | 98 | – | – |
| Cc1ccc(N)c(C(=O)NCCCCc2cccnc2)c1.Cl.Cl [Example 7, 2-Amino-5-methyl-N-[4-(3-pyridinyl)butyl]benzamide dihydrochloride] | 100 | 3 | 100 |
| Nc1cc(Cl)ccc1C(=O)NCCCc1cccnc1 [2-Amino-4-chloro-N--[3-(3-pyridinyl)propyl]benzamide, dihydrochloride] | – | 3 | 100 |
| Cl.Cl.Nc1cc(Cl)ccc1C(=O)NCCCCc1cccnc1 [Example 6, 2-Amino-4-Chloro-N-[4-(3-pyridinyl)butyl]benzamide dihydrochloride] | – | 3 | 100 |
| Nc1ccccc1C(=O)NCCc1cccnc1 [Example 1, 2-Amino-N-[2-(3-pyridinyl)ethyl]benzamide] | – | 3 | 100 |
| Cl.Cl.Nc1ccc(Cl)cc1C(=O)NCCCCc1cccnc1 [Example 3, 2-Amino-5-chloro-N-[4-(3-pyridinyl)butyl]benzamide dihydrochloride] | – | 3 | 100 |
| O=C(O)c1ccccc1C(=O)NCCc1cccnc1 [Example 12, 2-[[[2-(3-Pyridinyl)ethyl]amino]carbonyl]benzoic acid] | – | 3 | 100 |
| Nc1cc(Cl)ccc1C(=O)NCCCc1cccnc1 [Example 9, 2-Amino-4-chloro-N-[3-(3-pyridinyl)propyl]benzamide] | 95 | – | – |
| O=C(O)c1ccccc1C(=O)NCCCCc1cccnc1 [Example 13, 2-[[[4-(3-Pyridinyl]butyl]amino]carbonyl]benzoic acid] | 92 | – | – |

Source: US4743610A, “N-[ω(3-pyridinyl)alkyl]benzamides, useful as thromboxane synthetase enzyme and/or cardioprotective agents” (American Cyanamid Company, priority 1987, dated 1988)
